{"source": "patent US20240376547A1", "about": "“ONCOLOGIC VARIATIONS ASSOCIATED WITH CANCER AND METHODS OF TREATMENT” (LINNAEUS THERAPEUTICS, INC., priority 2021, published 2024)", "key": {"[1]": {"tested_on": "EML4-ALK A549 NSCLC cells", "experiment": "CCK-8 proliferation assay of parental and EML4-ALK A549 NSCLC cells", "format": "cell-based", "conditions": "EML4-ALK A549 cells compared with parental (control) A549 cells, 4 days treatment, 0.98-500 nM", "method": "(§1) Parental cells and EML4-ALK A549 NSCLC cells (5,000 cells) were plated in a 96-well tissue culture plate. Cells were treated with an array of ½ dilutions of LNS8801 for 4 days with 4 technical replicates for each condition (500 nM, 250 nM, 125 nM, 62.5 nM, 31.25 nM, 15.83 nM, 7.81 nM, 3.91M, 1.95 nM, 0.98 nM and 0 nM). After 4 days, relative viable cells were determined by Incubating cells with CCK-8 proliferation dye for 1 hour and measuring absorbance at 450 nm. Relative cell numbers were calculated by subtracting baseline absorbance of the media followed by normalization to the 0 nM treated control wells."}, "[2]": {"tested_on": "Crizotinib resistant EML4-ALK A549 NSCLC cells", "experiment": "CCK-8 proliferation assay of Crizotinib naive or resistant EML4-ALK A549 NSCLC cells", "format": "cell-based", "conditions": "4 days treatment, normalized to 0 nM control", "method": "as §1, with “Cells” for “Parental cells and EML4-ALK A549 NSCLC cells (5,000 cells) were plated in a 96-well tissue culture plate. Cells”, “[…]” for “½”, “15.63” for “15.83”, “3.91 nM,” for “3.91M,”, “incubating” for “Incubating”, “hour,” for “hour”\nAfter 4 days, relative viable cells were determined by incubating cells with CCK-8 proliferation dye for 1 hour, and measuring absorbance at 450 nm. Relative cell numbers were calculated by subtracting baseline absorbance of the media followed by normalization to the 0 nM treated control wells."}}, "note": "Entries after “also recorded” stand apart in the source; their conditions may differ."}
{"smiles": "CC(=O)c1ccc2c(c1)[C@@H]1C=CC[C@@H]1[C@H](c1cc3c(cc1Br)OCO3)N2", "note": "[LNS8801]", "values": [{"measurement": "cell viability (relative viable cells)", "setting": "[1]", "value": "effectively reduced EML4-ALK A549 cell viability over control A549 cells; also recorded: ALK+ NSCLC cells are more sensitive to LNS8801 than isogenic controls"}, {"measurement": "relative viability of Crizotinib-resistant cells", "setting": "[2]", "value": "able to effectively reduce viability; also recorded: has activity in the setting of ALK-inhibitor resistance"}]}
